Consider 41 compounds from patent publication US20220281863A1, “COMPOUNDS, COMPOSITIONS AND METHODS OF TREATING DISORDERS” (Reverie Labs, Inc., priority 2019, published 2022).

The structures appear in SMILES notation.

The target in this assay is T1, CDK9/CycTI (Homo sapiens, UniProt P50750).
T1 construct: purchased Carna biosciences 04-110
T1 sequence (P50750 whole entry): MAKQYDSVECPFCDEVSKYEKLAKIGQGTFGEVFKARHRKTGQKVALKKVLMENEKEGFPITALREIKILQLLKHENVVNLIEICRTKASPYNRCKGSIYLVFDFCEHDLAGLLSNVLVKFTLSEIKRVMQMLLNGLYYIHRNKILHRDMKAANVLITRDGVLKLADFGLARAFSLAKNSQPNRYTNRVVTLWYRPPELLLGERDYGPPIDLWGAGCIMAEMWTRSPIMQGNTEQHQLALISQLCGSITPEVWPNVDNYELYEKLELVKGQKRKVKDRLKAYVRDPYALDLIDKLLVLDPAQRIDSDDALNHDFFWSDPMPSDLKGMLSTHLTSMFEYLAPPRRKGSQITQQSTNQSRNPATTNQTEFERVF
T1 sequence (O60563 whole entry partner): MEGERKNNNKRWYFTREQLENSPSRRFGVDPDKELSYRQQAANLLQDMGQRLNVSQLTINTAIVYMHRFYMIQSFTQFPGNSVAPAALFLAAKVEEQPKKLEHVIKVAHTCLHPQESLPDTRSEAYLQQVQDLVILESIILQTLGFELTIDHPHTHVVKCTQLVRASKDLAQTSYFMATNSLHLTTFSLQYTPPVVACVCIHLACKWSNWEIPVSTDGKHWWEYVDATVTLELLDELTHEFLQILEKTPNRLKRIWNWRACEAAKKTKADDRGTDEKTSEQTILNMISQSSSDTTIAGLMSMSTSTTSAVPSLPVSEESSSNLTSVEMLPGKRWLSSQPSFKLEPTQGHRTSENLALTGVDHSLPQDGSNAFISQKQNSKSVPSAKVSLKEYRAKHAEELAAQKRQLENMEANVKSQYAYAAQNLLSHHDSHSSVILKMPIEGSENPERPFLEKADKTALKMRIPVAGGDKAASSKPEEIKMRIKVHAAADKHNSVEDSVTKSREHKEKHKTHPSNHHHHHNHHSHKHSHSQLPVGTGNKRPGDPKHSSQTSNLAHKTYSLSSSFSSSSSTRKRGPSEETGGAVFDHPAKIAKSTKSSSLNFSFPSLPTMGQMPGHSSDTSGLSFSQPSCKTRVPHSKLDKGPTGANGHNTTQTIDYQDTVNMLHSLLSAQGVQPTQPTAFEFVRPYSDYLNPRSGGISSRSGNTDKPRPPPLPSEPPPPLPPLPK
Description: In vitro kinase assay (ADP-Glo Kinase Assay Kit), CDK9/CycTI. It is filed as biochemical. The note with it: 30 ng CDK9/CycTI, 30 μM CDKtide, 10 μM ATP, 2 hours at room temperature; 8 to 10-point dose response (Tier2); read-out: IC50 Score. The method, then:
In vitro kinase assay was performed in white, 384-low volume plates in 5 μl reaction volume consisting of 30 ng CDK9/CycTI (Carna biosciences #04-110), 30 μM CDKtide (Signalchem #C06-58) and 10 μM ATP made in reaction buffer (40 mM Tris, pH 7.5; 20 mM MgCl2; 0.1 mg/ml BSA; 50 μM DTT) at 1 μM & 10 μM compound concentration for Tier1 assay and 8 to 10-point dose response curve for Tier2 assay. After 2 hours of incubation at room temperature, the amounts of […] in the kinase reaction were quantified using ADP-Glo™ Kinase Assay Kit (Promega #V9102). Briefly, 5 μl of ADP-Glo™ reagent was added to stop the kinase reaction and plate was incubated for 40 minutes at room temperature. Subsequently, 10 μl of Kinase Detection Reagent was added and luminescence was recorded after 30 minutes of incubation at room temperature.
The inhibition of kinase activity was determined relative to positive control (2% DMSO) and IC50 was calculated using GraphPad prism software (four parameter-variable slope equation).
On the technique in general: In ADP-Glo the light output rises with the ADP produced.
The IC50 is the concentration that inhibits the measured activity by half. With `CC(C)(C)OC(=O)N[C@H]1CCC[C@H](C(=O)Nc2nc3ccc4cc(F)ccc4c3s2)C1` [Compound 46], the IC50 was in the range of 500 to 1000 nM.

Consider `CC(=O)N1CCN(C)CC1C(=O)Nc1nc2ccc3cc(F)ccc3c2s1` (single isomer, unassigned) [Compound 66, 1-acetyl-N-(7-fluoronaphtho[2,1-d]thiazol-2-yl)-4-methylpiperazine-2-carboxamide], for which the IC50 fell in the range of 1000 to 20000 nM.

As for `O=C(Nc1nc2ccc3cc(F)ccc3c2s1)C1CCNC1` (single isomer, unassigned) [Compound 51, N-(7-fluoronaphtho[2,1-d]thiazol-2-yl)pyrrolidine-3-carboxamide], the half-inhibitory concentration (IC50) lay within 1 to 100 nM. Consider `O=C1CC[C@H](C(=O)Nc2nc3ccc4cc(F)ccc4c3s2)N1` [Compound 7, (R)—N-(7-fluoronaphtho[2,1-d]thiazol-2-yl)-5-oxopyrrolidine-2-carboxamide], for which the IC50 was in the range of 1 to 100 nM. As to `CN1CCC(C(=O)Nc2nc3ccc4cc(F)ccc4c3s2)C1` (single isomer, unassigned) [Compound 92, N-(7-fluoronaphtho[2,1-d]thiazol-2-yl)-1-methylpyrrolidine-3-carboxamide], the IC50 was in the range of 1 to 100 nM. To `O=C(Nc1nc2ccc3cc(F)ccc3c2s1)[C@@H]1CCCO1` [Compound 78, (S)—N-(7-fluoronaphtho[2,1-d]thiazol-2-yl)tetrahydrofuran-2-carboxamide] belongs 100 to 500 nM; to `CC(=O)N1CCC[C@@H]1C(=O)Nc1nc2ccc3ccccc3c2s1` [Compound 3, (R)-1-acetyl-N-(naphtho[2,1-d]thiazol-2-yl)pyrrolidine-2-carboxamide], 100 to 500 nM. Take `O=C(Nc1nc2ccc3cc(F)ccc3c2s1)[C@H]1CCN1` [Compound 90, (R)—N-(7-fluoronaphtho[2,1-d]thiazol-2-yl)azetidine-2-carboxamide]: the IC50 fell in the range of 500 to 1000 nM. In the case of `CC(=O)N[C@@H]1CCC[C@H](C(=O)Nc2nc3ccc4cc(F)ccc4c3s2)C1` [Compound 14, (1S,3R)-3-acetamido-N-(7-fluoronaphtho[2,1-d]thiazol-2-yl)cyclohexane-1-carboxamide], the IC50 is 1 to 100 nM. Take `CC(=O)N1CCC[C@@H]1C(=O)Nc1nc2ccc3cc(F)ccc3c2s1` [Compound 4, (R)-1-acetyl-N-(7-fluoronaphtho[2,1-d]thiazol-2-yl)pyrrolidine-2-carboxamide]: the IC50 was in the range of 1 to 100 nM. Consider `CS(=O)(=O)N1CCC[C@@H]1C(=O)Nc1nc2ccc3cc(F)ccc3c2s1` [Compound 9, (R)—N-(7-fluoronaphtho[2,1-d]thiazol-2-yl)-1-(methylsulfonyl)pyrrolidine-2-carboxamide], for which the IC50 lay in the range of 1 to 100 nM. For the compound `O=C(Nc1nc2ccc3cc(F)ccc3c2s1)[C@@H]1CCN1` [Compound 85, (S)—N-(7-fluoronaphtho[2,1-d]thiazol-2-yl)azetidine-2-carboxamide], the IC50 is 100 to 500 nM. Turning to `O=C(Nc1nc2ccc3cc(F)ccc3c2s1)[C@H]1CCC[C@@H](NS(=O)(=O)C2CC2)C1` [Compound 15-a, (1S,3R)-3-(cyclopropanesulfonamido)-N-(7-fluoronaphtho[2,1-d]thiazol-2-yl)cyclohexane-1-carboxamide], the IC50 fell in the range of 1 to 100 nM.

With `CC(C)(C)OC(=O)N1CCC[C@@H]1C(=O)Nc1nc2ccc3ccccc3c2s1` [Compound 1, tert-Butyl (R)-2-(naphtho[2,1-d]thiazol-2-ylcarbamoyl)pyrrolidine-1-carboxylate], the concentration for half-maximal inhibition (IC50) lay within 1000 to 20000 nM.

Turning to `O=C(Nc1nc2ccc3cc(F)ccc3c2s1)C1CCNCC1` [Compound 43], the IC50 lay in the range of 100 to 500 nM. Regarding `CC(=O)N1CCC[C@@H]1C(=O)Nc1nc2ccc3cc(Cl)ccc3c2s1` [Compound 17, (R)-1-acetyl-N-(7-chloronaphtho[2,1-d]thiazol-2-yl)pyrrolidine-2-carboxamide], the IC50 was 1 to 100 nM. Consider `C=CC(=O)N1CCC[C@@H]1C(=O)Nc1nc2ccc3cc(F)ccc3c2s1` [Compound 44, (R)-1-acryloyl-N-(7-fluoronaphtho[2,1-d]thiazol-2-yl)pyrrolidine-2-carboxamide], for which the IC50 was 1 to 100 nM. In the case of `O=C(Nc1nc2ccc3cc(F)ccc3c2s1)c1ccno1` [Compound 49, N-(7-fluoronaphtho[2,1-d]thiazol-2-yl)isoxazole-5-carboxamide] it was 1000 to 20000 nM; in that of `C=CC(=O)N[C@@H]1CCC[C@H](C(=O)Nc2nc3ccc4cc(F)ccc4c3s2)C1` [Compound 41, (1S,3R)-3-acrylamido-N-(7-fluoronaphtho[2,1-d]thiazol-2-yl)cyclohexane-1-carboxamide], 1 to 100 nM; in that of `O=C(Nc1nc2ccc3cc(F)ccc3c2s1)[C@H]1CCCCN1` [Compound 20], 1000 to 20000 nM. In the case of `CC(=O)N[C@@H]1CCC[C@@H](C(=O)Nc2nc3ccc4cc(F)ccc4c3s2)C1` [Compound 81], the IC50 lay in the range of 500 to 1000 nM.

Take `CN(C(=O)OC(C)(C)C)[C@@H]1CCC[C@H](C(=O)Nc2nc3ccc4cc(F)ccc4c3s2)C1` [Compound 24]: the concentration for half-maximal inhibition (IC50) was in the range of 1000 to 20000 nM.

Consider `O=C(Nc1nc2ccc3cc(F)ccc3c2s1)[C@H]1CC[C@@H](N2CCOCC2)C1` [Compound 57, (1S,3R)—N-(7-fluoronaphtho[2,1-d]thiazol-2-yl)-3-morpholinocyclopentane-1-carboxamide], for which the IC50 fell in the range of 1 to 100 nM.

As to `O=C(Nc1nc2ccc3cc(F)ccc3c2s1)[C@H]1CCCN1` [Compound 74], the IC50 lay within 500 to 1000 nM. With `CC(=O)N1CC[C@H]1C(=O)Nc1nc2ccc3cc(F)ccc3c2s1` [Compound 73, (S)-1-acetyl-N-(7-fluoronaphtho[2,1-d]thiazol-2-yl)azetidine-2-carboxamide], the IC50 was in the range of 1000 to 20000 nM. In the case of `CS(=O)(=O)N[C@@H]1CCC[C@H](C(=O)Nc2nc3ccc4cc(F)ccc4c3s2)C1` [Compound 13-a, (1S,3R)—N-(7-fluoronaphtho[2,1-d]thiazol-2-yl)-3-(methylsulfonamido)cyclohexane-1-carboxamide] it was 1 to 100 nM.

On to `CC(=O)N1CCN(C)CC1C(=O)Nc1nc2ccc3cc(F)ccc3c2s1` (single isomer, unassigned) [Compound 32, 1-acetyl-N-(7-fluoronaphtho[2,1-d]thiazol-2-yl)-4-methylpiperazine-2-carboxamide], for which the IC50 is 1000 to 20000 nM. Consider `O=C(Nc1nc2c(s1)-c1ccc(F)cc1CC2)[C@H]1CCC[C@@H](NS(=O)(=O)C2CC2)C1` [Compound 15-b, (1S,3R)-3-(cyclopropanesulfonamido)-N-(7-fluoro-4,5-dihydronaphtho[2,1-d]thiazol-2-yl)cyclohexane-1-carboxamide], for which the IC50 lay in the range of 500 to 1000 nM.

Turning to `CC(C)(C)OC(=O)N[C@H]1CCC[C@@H](C(=O)Nc2nc3ccc4cc(F)ccc4c3s2)C1` [Compound 30, Tert-butyl ((1S,3R)-3-((7-fluoronaphtho[2,1-d]thiazol-2-yl)carbamoyl)cyclohexyl) carbamate], the IC50 lay in the range of 100 to 500 nM. Consider `CC(=O)N1CCC(C(=O)Nc2nc3ccc4cc(F)ccc4c3s2)C1` (single isomer, unassigned) [Compound 82, 1-acetyl-N-(7-fluoronaphtho[2,1-d]thiazol-2-yl)pyrrolidine-3-carboxamide], for which the half-inhibitory concentration (IC50) was 100 to 500 nM. In the case of `O=C(Nc1nc2ccc3cc(F)ccc3c2s1)[C@H]1CCNC1` [Compound 31, (S)—N-(7-fluoronaphtho[2,1-d]thiazol-2-yl)pyrrolidine-3-carboxamide] it was 100 to 500 nM; in that of `O=C(Nc1nc2ccc3cc(F)ccc3c2s1)[C@@H]1CCNC1` [Compound 77], 1000 to 20000 nM; in that of `CC(C)(C)OC(=O)N1CC[C@H]1C(=O)Nc1nc2ccc3cc(F)ccc3c2s1` [Compound 84, Tert-butyl (S)-2-((7-fluoronaphtho[2,1-d]thiazol-2-yl)carbamoyl)azetidine-1-carboxylate], 1000 to 20000 nM. For `CC(C)(C)C(=O)N1CCC(C(=O)Nc2nc3ccc4cc(F)ccc4c3s2)CC1` [Compound 64], the IC50 was in the range of 500 to 1000 nM. To `O=C(Nc1nc2ccc3cc(F)ccc3c2s1)[C@@H]1CCCN1` [Compound 47, (S)—N-(7-fluoronaphtho[2,1-d]thiazol-2-yl)pyrrolidine-2-carboxamide] belongs 500 to 1000 nM. To `O=C(Nc1nc2ccc3cc(F)ccc3c2s1)C1CNC1` [Compound 58, N-(7-fluoronaphtho[2,1-d]thiazol-2-yl)azetidine-3-carboxamide] belongs 100 to 500 nM; to `CC(C)(C)OC(=O)N1CC[C@H](C(=O)Nc2nc3ccc4cc(F)ccc4c3s2)C1` [Compound 59, Tert-butyl (S)-3-((7-fluoronaphtho[2,1-d]thiazol-2-yl)carbamoyl)pyrrolidine-1-carboxylate], 500 to 1000 nM. For the compound `CC(C)(C)OC(=O)N[C@@H]1CC[C@H](C(=O)Nc2nc3ccc4cc(F)ccc4c3s2)C1` [Compound 34], the IC50 was 100 to 500 nM.

For the compound `CN1CC(C(=O)Nc2nc3ccc4cc(F)ccc4c3s2)C1` [Compound 29], the IC50 lay within 1000 to 20000 nM. In the case of `CC(C)(C)OC(=O)N1CC[C@@H]1C(=O)Nc1nc2ccc3cc(F)ccc3c2s1` [Compound 35, Tert-butyl (R)-2-((7-fluoronaphtho[2,1-d]thiazol-2-yl)carbamoyl)azetidine-1-carboxylate], the IC50 lay in the range of 1000 to 20000 nM. In the case of `CC(=O)N1CCNCC1C(=O)Nc1nc2ccc3cc(F)ccc3c2s1` (single isomer, unassigned) [Compound 18-a, 1-acetyl-N-(7-fluoronaphtho[2,1-d]thiazol-2-yl)piperazine-2-carboxamide] it was 100 to 500 nM.
